{
  "source": "paper PMC8761492",
  "about": "(Life Science Alliance, 2022)",
  "assay_in_all_cases": "microbe, parasite or virus in culture",
  "type_in_all_cases": "cell-based",
  "settings_in_all_cases": "Severe acute respiratory syndrome coronavirus 2, HeLa-ACE2, 48 h",
  "key": {"[1]": {"system": "SARS-CoV-2 α (B.1.1.7)"}, "[2]": {"system": "SARS-CoV-2 ο (B.1.1.529)"}, "[3]": {"system": "SARS-CoV-2 δ (B.1.617.2)"}, "[4]": {"system": "SARS-CoV-2 β (B.1.351)"}, "[5]": {"system": "SARS-CoV-2 μ (B.1.621)"}},
  "note": "Starred links: 1 amine or outer side, 2 acyl side, 3 side chain; linkers in the order of their positions; H or OH if unused. Positions of bridges follow the written chain, without caps; N, C: chain ends. Non-standard residues stand in square brackets, D forms with d. Residues, ends and D or L forms follow the SMILES beside them. *: point of attachment. X1 = CC[C@H](C)[C@@H](N[*:1])[C@@H](O)CC(=O)O[C@H](C(=O)[C@H](C)C(=O)[*:2])C(C)C; NMeY = CN[C@@H](Cc1ccc(O)cc1)C(=O)O; dNMeL = CN[C@H](CC(C)C)C(=O)O; Pyruvoyl = CC(=O)C(=O)*",
  "data": [
    {"smiles": "CC[C@H](C)[C@H]1NC(=O)[C@@H](NC(=O)[C@@H](CC(C)C)N(C)C(=O)[C@@H]2CCCN2C(=O)C(C)=O)[C@@H](C)OC(=O)[C@H](Cc2ccc(OC)cc2)N(C)C(=O)[C@@H]2CCCN2C(=O)[C@H](CC(C)C)NC(=O)[C@@H](C)C(=O)[C@H](C(C)C)OC(=O)C[C@@H]1O", "note": "[Plitidepsin] (Pyruvoyl-P[dNMeL]T[X1]LP[NMeY](Me); ester 3-C)", "values": [
      {"measurement": "IC50", "setting": "[1]; read-out: Antiviral IC50", "value": 0.052, "unit": "nM"},
      {"measurement": "IC90", "setting": "[1]; read-out: Antiviral IC90", "value": 0.161, "unit": "nM"},
      {"measurement": "IC50", "setting": "[2]; read-out: Antiviral IC50", "value": 0.291, "unit": "nM"},
      {"measurement": "IC90", "setting": "[2]; read-out: Antiviral IC90", "value": 0.887, "unit": "nM"},
      {"measurement": "IC50", "setting": "[3]; read-out: Antiviral IC50", "value": 0.089, "unit": "nM"},
      {"measurement": "IC90", "setting": "[3]; read-out: Antiviral IC90", "value": 0.511, "unit": "nM"},
      {"measurement": "IC50", "setting": "[4]; read-out: Antiviral IC50", "value": 0.077, "unit": "nM"},
      {"measurement": "IC90", "setting": "[4]; read-out: Antiviral IC90", "value": 0.419, "unit": "nM"},
      {"measurement": "IC50", "setting": "[5]; read-out: Antiviral IC50", "value": 0.266, "unit": "nM"},
      {"measurement": "IC90", "setting": "[5]; read-out: Antiviral IC90", "value": 1.03, "unit": "nM"}
    ]}
  ]
}
